Reference: patent US20220378732A1, “SmartCore Compositions and Methods” (NPI, LLC, priority 2020, published 2022)

Assays:
T2D mouse model = experiment: serum LPC-fatty acid levels after 4 weeks of administration in T2D mouse model; assay type: in vivo, mice; settings: for serum concentration of LPC-arachidonic acid (AA) / serum concentration of LPC-eicosapentaenoic acid (EPA) / serum concentration of α-linolenic acid (aLA): FIG. 5; for change in serum LPC-18:2 / change in serum LPC-DHA: T2D mouse model, 4 weeks of administration; for change in serum LPC-18:2: FIG. 3; for change in serum LPC-DHA: FIG. 4
Description: To validate the inventors' hypotheses on the biological activity of the lignan and methyl donor various animal experiments were performed using mice as test subjects. Diabetes (type 1 and type 2) was used as model disease for LPC deficiency. Type 2 (T2D) diabetic mice were 6-week-old BKS.Cg-Dock7m+/+Leprdb/J (db/db), leptin receptor deficient. Hyperglycemia was confirmed (BG>250 mg/dl). Upon confirmation, all animals were subjected to 4-week treatment as indicated below. Treatment groups were as follows: Control, MSM treatment alone, sesame seed oil treatment alone, and MSM+sesame seed oil treatment. For harvest, serum was collected for lipid panel and analyzed using standard clinical protocol and equipment. Tissues (brain, eyes, heart, liver, kidneys) for fatty acid analysis was frozen at −80° C., and liver sections preserved in formalin for histology. MSM was administered as 1% MSM solution in water: 15-20 ml water was given per ˜25 g mouse per day (6-8 g/kg dose for ˜25 g mouse; 3-5 g/kg dose for ˜40 g mouse). Sesamin was provided as 1.58 mg/mL sesamin in sesame seed oil with 0.12-0.15 mg/g sesamin in mouse food (T1D: 4.4 g food per mouse per day; T2D: 7-8 g food per mouse per day; 20-22 mg/kg dose for mouse (both models)). After 4 weeks of administration of the tested compounds in the T2D mouse model, LPC-18:2 and LPC-DHA were determined from plasma and exemplary results are shown in FIG. 3 and FIG. 4, respectively.

[1] = system: mice with high-fat diet-induced diabetes; settings: Exp Physiol 100.11 (2015); cited from earlier work
[2] = system: high-fat diet-induced dyslipidemia; settings: Nutrients 2016, 8, 276; cited from earlier work

SMILES	serum concentration of LPC-arachidonic acid (AA) (T2D mouse model)	serum concentration of LPC-eicosapentaenoic acid (EPA) (T2D mouse model)	serum concentration of α-linolenic acid (aLA) (T2D mouse model)	change in serum LPC-18:2 (T2D mouse model)	change in serum LPC-DHA (T2D mouse model)	effect on exercise capacity and skeletal muscle mitochondrial function [1]	effect on high-fat diet-induced dyslipidemia and kidney injury [2]
CS(C)(=O)=O [MSM, methylsulfonylmethane]	did not result in an increase	did not result in an increase	did not result in an increase	did not trigger a statistically relevant change	did not trigger a statistically relevant change	–	–
c1cc2c(cc1[C@H]1OC[C@H]3[C@@H]1CO[C@@H]3c1ccc3c(c1)OCO3)OCO2 [sesamin]	did not result in an increase	did not result in an increase	did not result in an increase	did not trigger a statistically relevant change	did not trigger a statistically relevant change	prevent decline in exercise capacity and impairment of skeletal muscle mitochondrial function	ameliorating high-fat diet-induced dyslipidemia and kidney injury
